Literature values in patent US8609138B2, “ω3 fatty acid compound preparation” (Mochida Pharmaceutical Co., Ltd., priority 2010, dated 2013).

Columns and labels:
[1] = pH 7.4; Non-Patent Literature 1
[2] = pharmaceutical products; Non-Patent Literatures 2-4

SMILES	log P7.4; water-octanol partition coefficient at a pH of 7.4 [1]	partition coefficient (octanol-water partition coefficient) [2]
CCC(C)(C)C(=O)O[C@H]1C[C@@H](C)C=C2C=C[C@H](C)[C@H](CC[C@@H]3C[C@@H](O)CC(=O)O3)[C@H]21 [simvastatin]	1.60	
CC[C@H](C)C(=O)O[C@H]1C[C@H](O)C=C2C=C[C@H](C)[C@H](CC[C@@H](O)C[C@@H](O)CC(=O)O)[C@H]21 [pravastatin]	−0.84	
CC(C)c1nc(N(C)S(C)(=O)=O)nc(-c2ccc(F)cc2)c1/C=C/[C@@H](O)C[C@@H](O)CC(=O)[O-].CC(C)c1nc(N(C)S(C)(=O)=O)nc(-c2ccc(F)cc2)c1/C=C/[C@@H](O)C[C@@H](O)CC(=O)[O-].[Ca+2] [rosuvastatin calcium]		−0.3±0.1
CC[C@H](C)C(=O)O[C@H]1C[C@H](O)C=C2C=C[C@H](C)[C@H](CC[C@@H](O)C[C@@H](O)CC(=O)O)[C@H]21 [Pravastatin sodium]		−0.33
CC(C)c1nc(N(C)S(C)(=O)=O)nc(-c2ccc(F)cc2)c1/C=C/[C@@H](O)C[C@@H](O)CC(=O)O [rosuvastatin]	~-0.33	
